Among the data in patent US20100216802A1, “PTERIDINE DERIVATIVES AS POLO-LIKE KINASE INHIBITORS USEFUL IN THE TREATMENT OF CANCER” (CHROMA THERAPEUTICS LTD., priority 2006, published 2010) are IC50 values, retold here.

One experiment has as its target T1, PLK1 (Homo sapiens, UniProt P53350).
T1 construct: purchased Invitrogen (Paisley, UK)
The experiment can be described thus: PLK1 enzyme assay (Z'-LYTE, Invitrogen). In kind it is biochemical. Conditions: ATP at or close to Km; read-out: Inhibitor Activity vs PLK1. The procedure: The ability of compounds to inhibit PLK-1 kinase activity was measured in an assay performed by Invitrogen (Paisley, UK). The Z′-LYTE™ biochemical assay employs a fluorescence-based, coupled-enzyme format and is based on the differential sensitivity of phosphorylated and non-phosphorylated peptides to proteolytic cleavage. The peptide substrate is labelled with two fluorophores—one at each end—that make up a FRET pair. In the primary reaction, the kinase transfers the gamma-phosphate of ATP to a single serine or threonine residue in a synthetic FRET-peptide. In the secondary reaction, a site-specific protease recognizes and cleaves non-phosphorylated FRET-peptides. Phosphorylation of FRET-peptides suppresses cleavage by the Development Reagent. Cleavage disrupts FRET between the donor (i.e., coumarin) and acceptor (i.e., fluorescein) fluorophores on the FRET-peptide, whereas uncleaved, phosphorylated FRET-peptides maintain FRET. A […] method, which calculates the ratio (the Emission Ratio) of donor emission to acceptor emission after excitation of the donor fluorophore at 400 nm, is used to quantitate reaction progress.
The assay is performed at an ATP concentration at, or close to, the Km. After the 60 minute Kinase Reaction incubation at RT, 5 μL of a 1:8 dilution of Development Reagent is added. The assay plate is incubated for a further 60 minutes at RT and read on a fluorescence plate reader.
Duplicate data points are generated from a ⅓ log dilution series of a stock solution of test compound in DMSO. Nine dilutions steps are made from a top concentration of 10 μM, and a ‘no compound’ blank is included. Data is collected and analysed using XLfit software from IDBS.

In another experiment the test system is HCT 116 cell line. Kind of experiment: Cell inhibition assay method A (WST-1, 120 hrs). To be noted: Homo sapiens, HCT-116, method A, read-out: Inhibitor Activity vs HCT 116 cell line (method A). The experiment is classed as cell-based. As to the method: Cell inhibition assays were carried out using either method A or method B
Cells were seeded in 96W tissue culture plates (1 well=30 mm^2) at a density of […] per well in 50 μL of the appropriate culture medium (see below). 24 hrs later […] of the compound prepared in the same medium was added as 4 fold dilutions to give final concentrations in the range 0.15 nM-2500 nM (n=6 for each concentration). The plates were then incubated at 37° C., 5% CO2 for 120 hrs. Cell proliferation was assessed using WST-1 (a metabolic indicator dye, Roche Cat no. 1 644 807) according to the manufacturers instructions. The results were calculated as percentage of vehicle response and IC50 values represent the concentration of compound that inhibited the vehicle response by 50%.
HCT-116 culture medium —Dulbeccos MEM (Sigma D6546) plus 10% heat inactivated fetal calf serum (Hyclone SH30071 Thermo Fischer Scientific) containing 2 mM Glutamine (Sigma cat no G-7513) and 50 U/ml Penicillin and Streptomycin Sulphate (Sigma Cat no P-0781).
(In general: Formazan colour is commonly taken as a measure of viable cells.)

T1 sequence (P53350 whole entry): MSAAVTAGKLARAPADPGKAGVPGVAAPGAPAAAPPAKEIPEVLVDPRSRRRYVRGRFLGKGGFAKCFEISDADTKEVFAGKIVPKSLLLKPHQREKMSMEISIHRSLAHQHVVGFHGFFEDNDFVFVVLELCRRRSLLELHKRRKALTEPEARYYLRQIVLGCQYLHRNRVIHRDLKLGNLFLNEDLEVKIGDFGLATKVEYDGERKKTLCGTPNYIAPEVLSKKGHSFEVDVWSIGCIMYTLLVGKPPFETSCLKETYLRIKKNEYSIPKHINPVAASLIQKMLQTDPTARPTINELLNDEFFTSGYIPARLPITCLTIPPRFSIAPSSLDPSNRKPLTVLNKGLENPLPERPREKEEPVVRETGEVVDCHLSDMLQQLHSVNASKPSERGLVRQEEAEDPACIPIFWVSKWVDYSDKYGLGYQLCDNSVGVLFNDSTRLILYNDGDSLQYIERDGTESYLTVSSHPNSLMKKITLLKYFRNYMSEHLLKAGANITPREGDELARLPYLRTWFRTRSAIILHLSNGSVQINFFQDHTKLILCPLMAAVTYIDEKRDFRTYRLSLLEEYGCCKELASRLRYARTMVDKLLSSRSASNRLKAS

Regarding `CC[C@@H]1C(=O)N(C)c2cnc(Nc3ccc(C(=O)NCc4ccc(OCC[C@H](N)C(=O)OC(C)(C)C)cc4)cc3OC)nc2N1C1CCCC1` [Example 12], the IC50 at PLK1 and with HCT 116 cell line was under 100 nM throughout.

Regarding `CC[C@@H]1C(=O)N(C)c2cnc(Nc3ccc(C(=O)NC4CCN(CC[C@H](N)C(=O)OC(C)(C)C)CC4)cc3F)nc2N1C1CCCC1` [Example 29, t-Butyl (2S)-2-amino-4-{4-{(4-{[(7R)-8-cyclopentyl-7-ethyl-5-methyl-6-oxo-5,6,7,8-tetrahydropteridin-2-yl]amino}-3-fluorobenzoyl)amino]piperidin-1-yl}butanoate], the IC50 on PLK1 and with HCT 116 cell line was under 100 nM each time.

`CC[C@@H]1C(=O)N(C)c2cnc(Nc3ccc(C(=O)NC4CCN(CC[C@H](N)C(=O)OC5CCCC5)CC4)cc3C)nc2N1C1CCCC1` [Example 28, Cyclopentyl (2S)-2-amino-4-(4-[(4-{[(7R)-8-cyclopentyl-7-ethyl-5-methyl-6-oxo-5,6,7,8-tetra hydropteridin-2-yl]amino}-3-methylbenzoyl)amino]piperidin-1-yl}butanoate]: the IC50 at PLK1 and in the experiment with HCT 116 cell line was under 100 nM each time.

For the molecule `CC[C@@H]1C(=O)N(C)c2cnc(Nc3ccc(C(=O)NC4CCN(CCC[C@@H](N)C(=O)OC5CCCC5)CC4)cc3OC)nc2N1C1CCCC1` [Example 27, Cyclopentyl 5-{4-[(4-{[(7R)-8-cyclopentyl-7-ethyl-5-methyl-6-oxo-5,6,7,8-tetrahydropteridin-2-yl]amino}-3-methoxybenzoyl)amino]piperidin-1-yl}-D-norvalinate], the IC50 on PLK1 and in the experiment on HCT 116 cell line was under 100 nM throughout.

Take `CC[C@@H]1C(=O)N(C)c2cnc(Nc3ccc(C(=O)Nc4ccc(CCC[C@H](N)C(=O)OC5CCCC5)cc4)cc3OC)nc2N1C1CCCC1` [Example 19, Cyclopentyl 5-{4-[(4-{[(7R)-8-cyclopentyl-7-ethyl-5-methyl-6-oxo-5,6,7,8-tetrahydro-pteridin-2-yl]amino}-3-methoxybenzoyl)amino]phenyl}-L-norvalinate]: the IC50 at PLK1 and in the experiment on HCT 116 cell line was under 100 nM each time.

Turning to `CC[C@@H]1C(=O)N(C)c2cnc(Nc3ccc(C(=O)NC4CCN(CC[C@H](N)C(=O)OC(C)(C)C)CC4)cc3C)nc2N1C1CCCC1` [Example 26, t-Butyl (2S)-2-amino-4-{4-[(4-{[(7R)-8-cyclopentyl-7-ethyl-5-methyl-6-oxo-5,6,7,8-tetra hydropteridin-2-yl]amino}-3-methylbenzoyl)amino]piperidin-1-yl}butanoate], the IC50 on PLK1 and with HCT 116 cell line was under 100 nM each time.

On to `CC[C@@H]1C(=O)N(C)c2cnc(Nc3ccc(OCC[C@H](N)C(=O)OC4CCCC4)cc3)nc2N1C1CCCC1` [Example 3, Cyclopentyl O-(4-{[(7R)-8-cyclopentyl-7-ethyl-5-methyl-6-oxo-5,6,7,8-tetrahydropteridin-2-yl]amino}phenyl)-L-homoserinate], for which the values for the IC50 at PLK1 and in the experiment on HCT 116 cell line were under 100 nM and 100 to 500 nM, respectively.

As to `CC[C@@H]1C(=O)N(C)c2cnc(Nc3ccc(C(=O)NC4CCN(CC[C@@H](N)C(=O)OC5CCCC5)C4)cc3OC)nc2N1C1CCCC1` (stereo partly drawn) [Example 17, Cyclopentyl (2R)-2-amino-4-{3-[(4-{[(7R)-8-cyclopentyl-7-ethyl-5-methyl-6-oxo-5,6,7,8-tetrahydropteridin-2-yl]amino}-3-methoxybenzoyl)amino]pyrrolidin-1-yl}butanoate], the IC50 at PLK1 and with HCT 116 cell line was under 100 nM throughout.

Regarding `CC[C@@H]1C(=O)N(C)c2cnc(Nc3ccc(C(=O)NCCCC[C@H](N)C(=O)OC4CCCC4)cc3OC)nc2N1C1CCCC1` [Example 8, Cyclopentyl N^6-(4-{[(7R)-8-cyclopentyl-7-ethyl-5-methyl-6-oxo-5,6,7,8-tetrahydropteridin-2-yl]amino}-3-methoxybenzoyl)lysinate], the IC50 at PLK1 and in the experiment with HCT 116 cell line was under 100 nM each time.

Regarding `CC[C@@H]1C(=O)N(C)c2cnc(Nc3ccc(C(=O)NC4CCN(CC[C@H](N)C(=O)OC5CCCC5)CC4)cc3F)nc2N1C1CCCC1` [Example 30, Cyclopentyl (2S)-2-amino-4-{4-[(4-{[(7R)-8-cyclopentyl-7-ethyl-5-methyl-6-oxo-5,6,7,8-tetra hydropteridin-2-yl]amino}-3-fluorobenzoyl)amino]piperidin-1-yl}butanoate], the IC50 on PLK1 and in the experiment with HCT 116 cell line was under 100 nM in each case.

As to `CC[C@@H]1C(=O)N(C)c2cnc(Nc3ccc(C(=O)NCCN4CCC(C[C@H](N)C(=O)OC5CCCC5)CC4)cc3OC)nc2N1C1CCCC1` [Example 10, Cyclopentyl 3-(1-{2-[(4-{[(7R)-8-cyclopentyl-7-ethyl-5-methyl-6-oxo-5,6,7,8-tetrahydropteridin-2-yl]amino}-3-methoxybenzoyl)amino]ethyl}piperidin-4-yl)alaninate], the IC50 on PLK1 and in the experiment with HCT 116 cell line was under 100 nM in each case.

On to `CC[C@@H]1C(=O)N(C)c2cnc(Nc3ccc(C[C@H](N)C(=O)OC4CCCC4)cc3)nc2N1C1CCCC1` [Example 1, Cyclopentyl 4-{[(7R)-8-cyclopentyl-7-ethyl-5-methyl-6-oxo-5,6,7,8-tetrahydropteridin-2-yl]amino}-L-phenylalaninate], for which the IC50 on PLK1 is under 100 nM; in the experiment with HCT 116 cell line, 100 to 500 nM.

For the molecule `CC[C@@H]1C(=O)N(C)c2cnc(Nc3ccc(C(=O)NCCN4CCNC(C(=O)OC(C)(C)C)C4)cc3OC)nc2N1C1CCCC1` (stereo partly drawn) [Example 15, tert-butyl 4-{2-[(4-{[(7R)-8-cyclopentyl-7-ethyl-5-methyl-6-oxo-5,6,7,8-tetrahydropteridin-2-yl]amino}-3-methoxybenzoyl)amino]ethyl}piperazine-2-carboxylate], the IC50 on PLK1 and with HCT 116 cell line was under 100 nM throughout.

Take `CC[C@@H]1C(=O)N(C)c2cnc(Nc3ccc(C(=O)NCc4ccc(OCC[C@H](N)C(=O)OC5CCCC5)cc4)cc3OC)nc2N1C1CCCC1` [Example 9, Cyclopentyl O-(4-{[(4-{[(7R)-8-cyclopentyl-7-ethyl-5-methyl-6-oxo-5,6,7,8-tetrahydropteridin-2-yl]amino}-3-methoxybenzoyl)amino]methyl}phenyl)-L-homoserinate]: the IC50 was 100 to 500 nM at PLK1 and under 100 nM in the experiment with HCT 116 cell line.

Take `CC[C@@H]1C(=O)N(C)c2cnc(Nc3ccc(C(=O)NC4C5CN(CC[C@H](N)C(=O)OC6CCCC6)CC54)cc3OC)nc2N1C1CCCC1` (stereo partly drawn) [Example 18, Cyclopentyl (2S)-2-amino-4-{6-[(4-{[(7R)-8-cyclopentyl-7-ethyl-5-methyl-6-oxo-5,6,7,8-tetrahydropteridin-2-yl]amino}-3-methoxybenzoyl)amino]-3-azabicyclo[3.1.01]hex-3-yl}butanoate]: the IC50 at PLK1 and with HCT 116 cell line was under 100 nM throughout.

On to `CC[C@@H]1C(=O)N(C)c2cnc(Nc3ccc(C(=O)N4CCNC(C(=O)OC5CCCC5)C4)cc3OC)nc2N1C1CCCC1` (stereo partly drawn) [Example 13, Cyclopentyl 4-(4-{[(7R)-8-cyclopentyl-7-ethyl-5-methyl-6-oxo-5,6,7,8-tetrahydropteridin-2-yl]amino}-3-methoxybenzoyl)piperazine-2-carboxylate], for which the IC50 at PLK1 was under 100 nM; with HCT 116 cell line, 100 to 500 nM.
